Measurements reported in patent EP3461488A1, “COMBINATION OF A DBAIT MOLECULE AND A HDAC INHIBITOR FOR TREATING CANCER” (ONXEO, priority 2017, dated 2019).
Read-outs that look alike come from different tables or passages of the source.

What was measured:
[1] = tested on: triple negative breast cancer cell line MDA-MB-231; assay: XTT cell survival assay and combination index analysis, MDA-MB-231; format: cell-based; details: Homo sapiens
Protocol: Cells were grown according to the supplier's instructions.
In a first step, the characterization of the effect of drugs monotherapy on cell survival (tumour and non-tumour cells) was performed. […] Following drug exposure, cell survival was measured using the XTT assay (Sigma Aldrich). […] Cell survival was calculated as the ratio of living treated cells to living mock-treated cells.
(§1) In a second step, analysis and quantification of the drug combination efficacy were performed. Cells were seeded in 96-well plates at the appropriate densities and treated with AsiDNA and/or the HDAC inhibitor (HDACi) belinostat simultaneously during 4 to 7days.
Combination efficacy was evaluated by "the combination index (CI)" which was determined using the CalcuSyn software tool based on the Chou Talalay method). […] Note that we define synergism as a more than expected additive effect, and antagonism as a less than expected additive effect.
In a first step, the characterization of the effect of drugs monotherapy on cell survival (tumour and non-tumour cells) was performed. […] Following drug exposure, cell survival was measured using the XTT assay (Sigma Aldrich). […] Cell survival was calculated as the ratio of living treated cells to living mock-treated cells. […] In a second step, analysis and quantification of the drug combination efficacy were performed. […] Cell survival was measured using the XTT assay (see above). Combination efficacy was evaluated by "the combination index (CI)" which was determined using the CalcuSyn software tool based on the Chou Talalay method. […]
In a first step, characterization of the effect of drugs monotherapy on cell survival (tumour and non-tumour cells) was performed. […] Following drug exposure, cell survival was measured using the XTT assay (Sigma Aldrich). […] Cell survival was calculated as the ratio of living treated cells to living mock-treated cells. […] In a second step, analysis and quantification of the drug combination efficacy were performed. […] Cell survival was measured using the XTT assay (see above). […]

[2] = tested on: histiocytic lymphoma cell line U937; assay: XTT cell survival assay and combination index analysis, U937; format: cell-based; details: Homo sapiens, U-937
Protocol: (§2) Cell cultures were performed with the triple negative breast cancer cell line MDA-MB-231, the histiocytic lymphoma cell line U937 and the non-tumor mammary cell line MCF-10A. Cells were grown according to the supplier's instructions. Cell lines were maintained at 37°C in a humidified atmosphere at 5% CO2, except the MDA-MB-231 cell line which was maintained at 0% CO2.
(§3) In a first step, the characterization of the effect of drugs monotherapy on cell survival (tumour and non-tumour cells) was performed. MDA-MB-231 (5.10^3 cells/well), MCF-10A (5.10^3 cells/well) and U937 (2.10^4 cells/well) were seeded in 96 well-plates and incubated 24 hours at +37°C before drug addition with increasing concentrations for 4 to 7 days. Following drug exposure, cell survival was measured using the XTT assay (Sigma Aldrich). Briefly, the XTT solution was added directly to each well containing cell culture and the cells incubated for 4 to 24 hours at 37°C before reading the absorbance at 490 nm and 690 nm using a microplate reader (BMG Fluostar, Galaxy). Cell survival was calculated as the ratio of living treated cells to living mock-treated cells. The IC50 (which represents the dose at which 50% of the cells are viable) was calculated by a non-linear regression model using GraphPad Prism software (version 5.04) by plotting the percentage viability against the Log of the drug concentration on each cell line.

[3] = tested on: non-tumor mammary cell line MCF-10A; assay: XTT cell survival assay, non-tumor cells MCF-10A; details: same drug doses as MDA-MB-231, 7 days after treatment, result in words
Protocol: as §2, §3, §1
In a first step, the characterization of the effect of drugs monotherapy on cell survival (tumour and non-tumour cells) was performed. MDA-MB-231 (5.10^3 cells/well), MCF-10A (5.10^3 cells/well) and U937 (2.10^4 cells/well) were seeded in 96 well-plates and incubated 24 hours at +37°C before drug addition with increasing concentrations for 4 to 7 days. Following drug exposure, cell survival was measured using the XTT assay (Sigma Aldrich). Briefly, the XTT solution was added directly to each well containing cell culture and the cells incubated for 4 to 24 hours at 37°C before reading the absorbance at 490 nm and 690 nm using a microplate reader (BMG Fluostar, Galaxy). Cell survival was calculated as the ratio of living treated cells to living mock-treated cells. […] In a second step, analysis and quantification of the drug combination efficacy were performed. […] Cell survival was measured using the XTT assay (see above). Combination efficacy was evaluated by "the combination index (CI)" which was determined using the CalcuSyn software tool based on the Chou Talalay method. […]

[4] = XTT assay, monotherapy, increasing concentrations for 4 to 7 days, dose at which 50% of the cells are viable, read-out: IC50
[5] = U937, XTT assay, monotherapy, increasing concentrations for 4 to 7 days, dose at which 50% of the cells are viable, read-out: IC50

O=C(/C=C/c1cccc(S(=O)(=O)Nc2ccccc2)c1)NO [Belinostat, (2E)-N-hydroxy-3-[3-(phenylsulfamoyl)phenyl]prop-2-enamide]
IC50 [1, 4]: 250 nM | IC50 [2, 5]: 250 nM | cell survival of non-tumor cells (sensitivity) [3]: insensitive

Nc1ccccc1NC(=O)c1ccc(CNC(=O)OCc2cccnc2)cc1 [Entinostat]
IC50 [1, 4]: 100 nM | IC50 [2, 5]: 10 nM | cell survival of non-tumor cells (sensitivity) [3]: insensitive

C/C=C1\NC(=O)[C@H]2CSSCC/C=C/[C@H](CC(=O)N[C@H](C(C)C)C(=O)N2)OC(=O)[C@H](C(C)C)NC1=O [Romidepsin]
IC50 [1]: 0.4 nM | IC50 [2]: 1 nM | cell survival of non-tumor cells (sensitivity) [3]: showed a sensitivity

O=C(CCCCCCC(=O)Nc1ccccc1)NO [Vorinostat, N-hydroxy-N'-phenyloctanediamide]
cell survival of non-tumor cells (sensitivity) [3]: showed a sensitivity
